Consider eight molecules from US20200017467A1, “NOVEL TRIAZOLE DERIVATIVES” (BAYER CROPSCIENCE AKTIENGESELLSCHAFT, priority 2017, published 2020).

Each structure is given as a SMILES string.

One test deals with Sphaerotheca fuliginea. Nature of the test: In vivo preventive test on Sphaerotheca fuliginea (powdery mildew on cucurbits). Conditions: Podosphaera fuliginea, 360 h; 500 ppm of active ingredient; gherkin, preventive spray, evaluated 15 days after inoculation; read-out: efficacy. As to the method:
Example C: In Vivo Preventive Test on Sphaerotheca fuliginea (Powdery Mildew on Cucurbits) [table] The active ingredients were made soluble and homogenized in a mixture of dimethyl sulfoxide/acetone//Tween® 80 and then diluted in water to the desired concentration. Young plants of gherkin were treated by spraying the active ingredient prepared as described above. Control plants were treated only with an aqueous solution of acetone/dimethyl sulfoxide/Tween® 80. After 24 hours, the plants were contaminated by spraying the leaves with an aqueous suspension of Sphaerotheca fuliginea spores. The contaminated gherkin plants were incubated for 72 hours at 18° C. and at 100% relative humidity and then for 12 days at 20° C. and at 70-80% relative humidity. The test was evaluated 15 days after the inoculation. 0% means an efficacy which corresponds to that of the control plants while an efficacy of 100% means that no disease was observed.

Test [1] concerns Septoria tritici. Put plainly: Example F-C: in vivo 5 days preventive Septoria tritici test (wheat). As to conditions: Zymoseptoria tritici, 504 h, inoculated 5 days after spraying, evaluated 21 days after inoculation, read-out: Efficacy in % Example F-C. The protocol:
Example F: In Vivo Septoria tritici Test (Wheat); Comparison of Pyridinyloxy-Pyridyl Compounds According to the Invention Vs. Compounds Known from WO-A 2010/146116 [table] To produce a suitable preparation of active compound, 1 part by weight of active compound or active compound combination is mixed with the stated amounts of solvent and emulsifier, and the concentrate is diluted with water to the desired concentration. Example F-C: In Vivo 5 Days Preventive Septoria tritici Test (Wheat) To test for preventive and long-lasting activity, young plants are sprayed with a preparation of active compound or active compound combination at the stated rate of application. After the spray coating has been dried, the plants are placed in the greenhouse at a temperature of approximately 15° C. and a relative atmospheric humidity of approximately 80%. 5 days later the plants are sprayed with a spore suspension of Septoria tritici. The plants remain for 48 hours in an incubation cabinet at approximately 20° C. and a relative atmospheric humidity of approximately 100% and afterwards for 60 hours at approximately 15° C. in a translucent incubation cabinet at a relative atmospheric humidity of approximately 100%. Then the plants are placed in the greenhouse at a temperature of approximately 15° C. and a relative atmospheric humidity of approximately 80%. The test is evaluated 21 days after the inoculation. 0% means an efficacy which corresponds to that of the untreated control, while an efficacy of 100% means that no disease is observed.

Test [2] deals with Blumeria graminis fsp. hordei. Nature of the test: In vivo preventive Blumeria test (barley). As to conditions: 168 h, 500 ppm of active ingredient, preventive spray, evaluated 7 days after inoculation, read-out: efficacy. As to the method: Example E: In Vivo Preventive Blumeria Test (Barlev) [table] To produce a suitable preparation of active compound, 1 part by weight of active compound or active compound combination was mixed with the stated amounts of solvent and emulsifier, and the concentrate was diluted with water to the desired concentration. To test for preventive activity, young plants were sprayed with the preparation of active compound or active compound combination at the stated rate of application. After the spray coating had been dried, the plants were dusted with spores of Blumeria graminis fsp. hordei. The plants were placed in the greenhouse at a temperature of approximately 18° C. and a relative atmospheric humidity of approximately 80% to promote the development of mildew pustules. The test was evaluated 7 days after the inoculation. 0% means an efficacy which corresponds to that of the untreated control, while an efficacy of 100% means that no disease is observed.

The test system of test [3] is Septoria tritici. Put plainly: Example F-A: in vivo preventive Septoria tritici test (wheat). As to conditions: Zymoseptoria tritici, 504 h, evaluated 21 days after inoculation, read-out: Efficacy in % Example F-A. The protocol: Example F: In Vivo Septoria tritici Test (Wheat); Comparison of Pyridinyloxy-Pyridyl Compounds According to the Invention Vs. Compounds Known from WO-A 2010/146116 [table] To produce a suitable preparation of active compound, 1 part by weight of active compound or active compound combination is mixed with the stated amounts of solvent and emulsifier, and the concentrate is diluted with water to the desired concentration. Example F-A: In Vivo Preventive Septoria tritici Test (Wheat) To test for preventive activity, young plants are sprayed with the preparation of active compound or active compound combination at the stated rate of application. After the spray coating has been dried, the plants are sprayed with a spore suspension of Septoria tritici. The plants remain for 48 hours in an incubation cabinet at approximately 20° C. and a relative atmospheric humidity of approximately 100% and afterwards for 60 hours at approximately 15° C. in a translucent incubation cabinet at a relative atmospheric humidity of approximately 100%. The plants are placed in the greenhouse at a temperature of approximately 15° C. and a relative atmospheric humidity of approximately 80%. The test is evaluated 21 days after the inoculation. 0% means an efficacy which corresponds to that of the untreated control, while an efficacy of 100% means that no disease is observed.

The test system of the next test is Uromyces appendiculatus. Nature of the test: In vivo preventive test on Uromyces appendiculatus (bean rust). Conditions: 264 h, 500 ppm of active ingredient, preventive spray, evaluated 11 days after inoculation, read-out: efficacy. The protocol:
(§1) Example D: In Vivo Preventive Test on Uromyces appendiculatus (Bean Rust) [table] The active ingredients were made soluble and homogenized in a mixture of dimethyl sulfoxide/acetone//Tween® 80 and then diluted in water to the desired concentration. Young plants of bean were treated by spraying the active ingredient prepared as described above. Control plants were treated only with an aqueous solution of acetone/dimethyl sulfoxide/Tween® 80. After 24 hours, the plants were contaminated by spraying the leaves with an aqueous suspension of Uromyces appendiculatus spores. The contaminated bean plants were incubated for 24 hours at 20° C. and at 100% relative humidity and then for 10 days at 20° C. and at 70-80% relative humidity. The test was evaluated 11 days after the inoculation. 0% means an efficacy which corresponds to that of the control plants while an efficacy of 100% means that no disease was observed.

The next test relates to Puccinia recondita. Put plainly: In vivo preventive test on Puccinia recondita (brown rust on wheat). As to conditions: 264 h, 500 ppm of active ingredient, preventive spray, evaluated 11 days after inoculation, read-out: efficacy. As to the method: as §1, with “A:” for “D:”, “Puccinia recondita (Brown Rust on Wheat)” for “Uromyces appendiculatus (Bean Rust)”, “wheat” for “bean”, “Puccinia recondita” for “Uromyces appendiculatus”

Take `CC(O)(Cn1cncn1)c1ccc(Oc2ccc(Br)nc2)nc1C(F)(F)F` (stereo not shown) [I-01, 2-[6-[(6-bromo-3-pyridyl)oxy]-2-(trifluoromethyl)-3-pyridyl]-1-(1,2,4-triazol-1-yl)propan-2-ol]: the pest or weed control at 500 ppm with Sphaerotheca fuliginea is 90 to 100%; in the test with Septoria tritici [1] it was 100%; in test [2] it was 90 to 100%; in the test on Septoria tritici [3], 100%; with Uromyces appendiculatus it was 80 to 89%; in the test with Puccinia recondita it was 90 to 100%.
For the molecule `CC(O)(Cn1cncn1)c1ccc(Oc2ccc(C(F)(F)F)nc2)nc1C(F)(F)F` (stereo not shown) [I-02, 1-(1,2,4-triazol-1-yl)-2-[2-(trifluoromethyl)-6-[[6-(trifluoromethyl)-3-pyridyl]oxy]-3-pyridyl]propan-2-ol], the pest or weed control at 500 ppm is 90 to 100% in the test on Sphaerotheca fuliginea; 100% in the test with Septoria tritici [1]; 90 to 100% in test [2]; 100% in the test on Septoria tritici [3]; 90 to 100% with Uromyces appendiculatus; 80 to 89% with Puccinia recondita.
Take `CC(O)(Cn1cncn1)c1cnc(Oc2ccc(C(F)(F)F)nc2)cc1C(F)(F)F` (stereo not shown) [I-04]: the pest or weed control at 500 ppm was 90 to 100% in the test with Sphaerotheca fuliginea; 90 to 100% in test [2]; 100% in the test with Septoria tritici [3]; 90 to 100% in the test on Uromyces appendiculatus; 90 to 100% in the test on Puccinia recondita.
For `CC(O)(Cn1cncn1)c1ccc(Oc2ccc(Cl)nc2)nc1C(F)(F)F` (stereo not shown) [I-05], the pest or weed control at 500 ppm was 90 to 100% with Sphaerotheca fuliginea; 63% with Septoria tritici [1]; 90 to 100% in test [2]; 100% in the test with Septoria tritici [3]; 90 to 100% with Uromyces appendiculatus; 80 to 89% in the test on Puccinia recondita.
Turning to `CC(O)(Cn1cncn1)c1cnc(Oc2ccc(Cl)nc2)cc1C(F)(F)F` (stereo not shown) [I-06, 2-[6-[(6-chloro-3-pyridyl)oxy]-4-(trifluoromethyl)-3-pyridyl]-1-(1,2,4-triazol-1-yl)propan-2-ol], the pest or weed control at 500 ppm in the test with Sphaerotheca fuliginea was 90 to 100%; in the test on Septoria tritici [1] it was 88%; in test [2], 90 to 100%; in the test on Septoria tritici [3], 100%; in the test on Uromyces appendiculatus it was 90 to 100%; with Puccinia recondita it was 90 to 100%.
Take `CC(O)(Cn1cncn1)c1cnc(Oc2ccc(Br)nc2)cc1C(F)(F)F` (stereo not shown) [I-07]: the pest or weed control at 500 ppm in the test with Sphaerotheca fuliginea is 90 to 100%; in the test on Septoria tritici [1] it was 100%; in test [2], 90 to 100%; in the test with Septoria tritici [3], 100%; with Uromyces appendiculatus, 70 to 79%; in the test with Puccinia recondita, 80 to 89%.
`OC(Cn1cncn1)c1ccc(Oc2ccc(C(F)(F)F)nc2)nc1C(F)(F)F` (stereo not shown) [I-09]: the pest or weed control at 500 ppm was 90 to 100% with Sphaerotheca fuliginea; 100% in the test with Septoria tritici [1]; 90 to 100% in test [2]; 100% with Septoria tritici [3]; 90 to 100% in the test with Uromyces appendiculatus; 90 to 100% with Puccinia recondita.
As for `OC(Cn1cncn1)c1cnc(Oc2ccc(Br)nc2)cc1C(F)(F)F` (stereo not shown) [I-13], the pest or weed control at 500 ppm was 90 to 100% in the test on Sphaerotheca fuliginea; 100% in the test on Septoria tritici [1]; 90 to 100% in test [2]; 100% in the test with Septoria tritici [3]; 90 to 100% in the test with Puccinia recondita.
